# Reference: US20260356814A1, “INDOLINE DERIVATIVES AS SEROTONERGIC AGENTS USEFUL FOR THE TREATMENT OF DISORDERS RELATED THERETO” (MINDSET PHARMA INC., priority 2022, published 2026)
# Entries after “also recorded” stand apart in the source; their conditions may differ.
# What was measured:
# [1] = target: T1, human 5-HT2A (h5-HT2A) receptor (Homo sapiens, UniProt P28223); test: FLIPR assay: human 5-HT2A (agonist mode); format: cell-based; details: @10 μM (head); footnote: curve fitting with activation (%) @ 10 mM with RFU; RFU=Fmax−Fmin
# T1 construct: expressed in transfected cells; host or cells: HEK293 (HTR2A&Ga15-HEK293, tetracycline-induced)
# Description: Assessment of the effect of exemplary compounds of Formula I targeting on human 5-HT2A (h5-HT2A) receptor under agonist mode.
# HTR2A&Ga15-HEK293 cells were cultured in DMEM medium containing 10% dialyzed FBS and 1x penicillin-streptomycin, 100 μg/mL Hygromycin B and 300 μg/mL G418. The cells were passaged about three times a week, maintained between ~30% to ~90% confluence.
# • 1. The cell culture medium (DMEM medium containing 10% dialyzed FBS and 1× penicillin-streptomycin, 100 μg/mL Hygromycin B and 300 μg/mL G418), TrypLE™ Express and DPBS to R.T. was warmed in advance. • 2. For induction, 1 μg/ml tetracycline (final concentration) was added to cell culture medium and incubated for 48 hours prior to seeding cells into plate at 37° C., 5% (v/v) CO2. The cell culture medium was removed from flask. Cells were washed with DPBS. • 3. 2 mL TrypLE™ Express was added to the flask, mixed well by gentle shaking and cells were incubated at 37° C. for a few minutes. • The cells were checked for morphological change under microscope, the digestion was stopped by adding 4 mL cell culture medium to the flask when most of cells turned to round. • 5. The cell suspension was transferred into a 15 mL centrifuge tube, and then centrifuged at 1,200 rpm for 5 minutes. • 6. The supernatant was removed. The cell pellet was resuspended with 2 mL cell culture medium. • 7. The cell density was counted using cell counter. Only cells with >85% viability were used for the assay. • 8. Cells were diluted to 6.67×10^5/mL with cell culture medium. • 9. 30 μL/well cell suspensions added into a 384-well cell plate (The cell density was 20,000 cells/well). • 10. The cell plate was incubated overnight at 37° C., 5% (v/v) CO2. 2.3 Cell handling • 1. On the day of experiments, culture medium was removed from the cell plate. • 2. 10 μL of assay buffer (20 mM HEPES, in 1×HBSS, pH 7.4) was added to each well of the cell plate. • 3. 2×dye solution was prepared following the manual of the FLIPR® Calcium 6 Assay Kit: • i. The dye was diluted with assay buffer. • ii. Probenecid was added to the final concentration of 5 mM. • iii. Vortexed vigorously for 1-2 minutes. • 4. 10 μL of 2× dye solution was added to each well of the cell plate • 5. The cell plate was placed on plate shaker, followed by shaking at 600 rpm for 2 minutes. • 6. The plate was incubated at 37° C. for 2 hours followed by an additional 15-minute incubation at 25° C. 2.4 Prepare 3×compound • 1. Serotonin HCl was prepared to the concentration of 10 mM with DMSO. • 2. The test compounds were prepared to the concentration of 10 mM with DMSO. • 3. The compounds were added to a 384-well compound source plate. • 4. 3-folds serial dilutions were performed with DMSO. • 5. 90 nL/well of serial diluted compounds was transferred from source plate to a 384-well compound plate by using an Echo. • 6. 30 μL/well of assay buffer (20 mM HEPES in 1x HBSS, pH 7.4) was added to the compound plate. • 7. The plate was mixed on-plate shaker for 2 minutes.
# • 1. After the cells were incubated with dye solution, the cell plate, compound plate containing 3×compounds and FLIPR tips were placed into FLIPR. • 2. 10 μL of 3×compounds transferred from the compound plate to the cell plate by FLIPR. • 3. The plate was read for 160 sec with 1 sec interval and the data of agonist mode was obtained.
# (§1) • 1. The normalized fluorescence reading (RFU) was calculated as shown below, wherein Fmax and Fmin stand for maximum and minimum of calcium signal during defined time window:
# RFU=Fmax−Fmin • 2. EC50 by fitting RFU against log of compound concentrations with Hill equation was calculated using XLfit.
# The following procedure can also be followed: • 1. Cells are cultured in cell culture medium (DMEM containing 10% FBS, 1× penicillin-streptomycin 300 μg/ml G418 and 100 μg/ml hygromycin B) at 37° C., 5% (v/V) CO2. • 2. One day before the assays, the cells are detached using TrypLE™ Express and cells are counted using cell counter.
# human 5-HT2A receptor = human 5-HT2A receptor (Homo sapiens, UniProt P28223); test: Human 5-HT2A: Radioligand binding assay ([3H]-ketanserin); details: [3H]-ketanserin displacement, 27° C., 90 min, pH 7.4; read-out: h5-HT2A, IC50
# Description: Exemplary compounds of Formula I were evaluated functionally using FLIPR assay for their effect on h5-HT2A receptor under agonist mode. The objective of this study was to evaluate the binding properties of exemplary compounds of Formula I on 5-hydroxytryptamine receptor 2A (5-HT2A). • Human 5-HT2A: Radioligand binding assay:
# • i. The assay buffer was prepared following the table below.
# • Adjust pH to 7.4 followed by […] sterile filtration • ii. 8 doses of reference and test compounds starting from 10 mM stock solution as required was prepared by 5-fold serial dilutions with 100% (v/v) DMSO. • iii. UniFilter-96 GF/B plate was pretreated: • a. 50 μl/well of 0.5% (v/v) PEI was added to UniFilter-96 […] plates. The plates were sealed and incubated at 4° C. for 3 hrs. • b. After incubation, the plates were washed 3 times with ice-cold wash buffer (50 mM Tris, pH7.4). • iv. The assay plate was prepared: • a. Cell membrane was diluted with assay buffer and 330 μl/well was added to 96 round deep well plates to reach a concentration of 20 μg/well. • b. 8 concentrations of reference or test compounds were prepared and 110 μl/well was added to 96 round deep well plates. • c. [3H]-ketanserin was diluted with assay buffer to 5 nM (5X final concentration) and 110 μl/well was added to 96 round deep well plates. • v. The plate was centrifuged at 1000 rpm for 30 secs and then agitated at 600 rpm, R.T. for 5 min. • vi. The plates were sealed and the plate incubated at 27° C. for 90 min. • vii. The incubation was stopped by vacuum filtration onto GF/B filter plates followed by 4 times washing with ice-cold wash buffer (50 mM Tris, pH7.4). • viii. The plates were dried at 37° C. for 45 min. • ix. The filter plates were sealed and 40 μl/well of scintillation cocktail was added. • x. The plate was read by using a Microbeta2 microplate counter.
# • 1. For reference and test compounds, the results were expressed as % Inhibition, using the normalization equation: N=100−100×(U−C2)/(C1-C2), where U is the unknown value, C1 is the average of high controls, and C2 is the average of low controls. • 2. The IC50 was determined by fitting percentage of inhibition as a function of compound concentrations with Hill equation using XLfit.
# [2] = test system: brain's default mode network; details: intravenously administered; cited from earlier work
# 5-HT2 receptor = details: daily administration; cited from earlier work
# [3] = test system: depression and anxiety associated with life-threatening disease; details: in a supportive setting; cited from earlier work
# Plasma stability, rat = format: in vitro ADME; details: 37° C.
# Description: (§2) • a. […] The final concentration of organic solvents was 0.5%. The assay was performed in duplicated. • b.
# (§3) All calculations were carried out using Microsoft Excel.
# Plasma stability, mouse = format: in vitro ADME; details: 37° C.
# Description: as §2, §3
# Plasma stability, human = format: in vitro ADME; details: 37° C.
# Description: as §2, §3
# human 5-HT1A receptor = target: T2, human 5-HT1A receptor (Homo sapiens, UniProt P08908); test: Human 5-HT1A: Functional FLIPR assay (agonist mode); format: cell-based; details: @10 μM (head); footnote: curve fitting with activation (%) @ 10 mM with RFU; RFU=Fmax−Fmin
# T2 construct: expressed in transfected cells; host or cells: CHO (HTR1A&Ga15-CHO)
# T2 sequence (P08908 1-422): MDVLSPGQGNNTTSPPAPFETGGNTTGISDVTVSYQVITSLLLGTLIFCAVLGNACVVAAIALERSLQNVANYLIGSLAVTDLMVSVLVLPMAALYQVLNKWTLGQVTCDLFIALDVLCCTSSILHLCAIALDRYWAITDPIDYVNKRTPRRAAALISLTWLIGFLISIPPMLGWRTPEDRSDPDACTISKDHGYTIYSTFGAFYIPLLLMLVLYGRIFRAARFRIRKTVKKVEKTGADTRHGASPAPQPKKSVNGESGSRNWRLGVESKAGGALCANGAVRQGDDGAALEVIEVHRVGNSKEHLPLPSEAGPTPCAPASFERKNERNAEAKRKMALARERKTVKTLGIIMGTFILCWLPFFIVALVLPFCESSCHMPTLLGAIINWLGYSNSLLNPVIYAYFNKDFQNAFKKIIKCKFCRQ
# Description: The potential excitatory effects of compounds targeting on 5-hydroxytryptamine receptor 1A (5-HT1A) under agonist mode was assessed.
# HTR1A&Ga15-CHO cells were cultured in DMEM/F12 medium containing 10% dialyzed FBS, 1x penicillin-streptomycin and 600 μg/mL Hygromycin B. The cells were passaged about three times a week, maintained between ~30% to ~90% confluence.
# • 1. The cell culture medium (DMEM/F12 medium containing 10% dialyzed FBS, 1x penicillin-streptomycin and 600 μg/mL Hygromycin B), TrypLE™ Express and DPBS was warmed to R.T. in advance. • 2. The cell culture medium was removed from flask. Washed cells with DPBS. • 3. 1 mL TrypLE™ Express was added to the flask, mixed well by gentle shaking and cells were incubated at 37° C. for a few minutes. • 4. The cells were checked for morphological change under microscope, the digestion was stopped by adding 2 mL cell culture medium to the flask when most of cells turned to round. • 5. The cell suspension was transferred into a 15 mL centrifuge tube, and then centrifuged at 1,200 rpm for 5 minutes. • 6. The supernatant was removed. The cell pellet were resuspended with 2 mL cell culture medium. • 7. The cell density were counted using cell counter. Only cells with >85% viability were used for the assay. • 8. Cells were diluted to 4×10^5/mL with cell culture medium. • 9. 30 μL/well cell suspensions were added into a 384-well cell plate (The cell density was 12,000 cells/well). • 10. The cell plate was incubated overnight at 37° C., 5% (v/v) CO2.
# • 1. On the day of experiments, culture medium was removed from the cell plate. • 2. 10 μL of assay buffer (20 mM HEPES, in 1×HBSS, pH 7.4) was added to each well of the cell plate. • 3. 2× dye solution was prepared following the manufacture's instruction of the FLIPR® Calcium 6 assay kit: • i. The dye was diluted with assay buffer. • ii. probenecid was added to the final concentration of 5 mM. • iii. Vortexed vigorously for 1-2 minutes, adjust pH to 7.4. • 4. 10 μL of 2×dye solution was added to each well of the cell plate. • 5. The cell plate was placed on plate shaker, followed by shaking at 600 rpm for 2 minutes. • 6. The plate was incubated at 37° C. for 2 hours followed by an additional 15-minute incubation at 25° C. 3.4 Prepare 3×compounds. • 1. Serotonin was prepared to the concentration of 10 mM with DMSO, 3-folds serial dilutions were performed with DMSO. • 2. Prepare the test compound to the concentration of 10 mM with DMSO, preform 3-folds serial dilutions with DMSO. • 3. The compounds were added to a 384-well compound source plate. • 4. 90 nL/well of serial diluted compounds were transferred from source plate to a 384-well compound plate by using an Echo. • 5. 30 μL/well of assay buffer was added to the compound plate. • 6. The plate was mixed on-plate shaker for 2 minutes. 3.5 FLIPR assay • 1. After the cells incubate with dye solution, the cell plate, compound plate containing 3×compounds and FLIPR tips were placed into FLIPR. • 2. 10 μL of 3×compounds were transferred from the compound plate to the cell plate by FLIPR. • 3. The plate was read for 160 sec with 1 sec interval to obtain the data of agonist mode.
# as §1
# RFU=Fmax−Fmin • 2. EC50 was calculated by fitting RFU against log of compound concentrations with Hill equation using XLfit.
# [4] = 30 min, read-out: Remaining Percentage (%), 30 min
# [5] = 60 min, read-out: Remaining Percentage (%), 60 min
# [6] = >255.85 if remaining at 60 min greater than 85%
# T1 sequence (P28223 whole entry): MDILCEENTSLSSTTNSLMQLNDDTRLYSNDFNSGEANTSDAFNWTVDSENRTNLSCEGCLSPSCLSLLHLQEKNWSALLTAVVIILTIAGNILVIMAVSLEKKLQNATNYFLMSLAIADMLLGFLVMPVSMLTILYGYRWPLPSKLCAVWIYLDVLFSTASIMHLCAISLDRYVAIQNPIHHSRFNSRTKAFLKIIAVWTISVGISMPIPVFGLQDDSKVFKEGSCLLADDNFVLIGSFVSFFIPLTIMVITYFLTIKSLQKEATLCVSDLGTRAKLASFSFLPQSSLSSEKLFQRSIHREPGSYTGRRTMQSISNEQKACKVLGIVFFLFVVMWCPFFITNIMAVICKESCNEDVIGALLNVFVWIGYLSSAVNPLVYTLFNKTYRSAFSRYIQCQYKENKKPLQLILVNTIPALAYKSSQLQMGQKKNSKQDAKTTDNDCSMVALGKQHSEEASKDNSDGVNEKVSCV
# Chain of human 5-HT2A receptor (P28223 whole entry): as above
smiles,measurement,setting,value
"COc1ccc2c(c1)N(C[C@@H]1CCCN1C)CC2 [(S)-I-58, (S)-6-Methoxy-1-((1-methylpyrrolidin-2-yl)methyl) indoline]",RFU@10 μM,[1],203 RFU
same,IC50,human 5-HT2A receptor,> 30 µM
CCN(CC)C(=O)[C@@H]1C=C2c3cccc4[nH]cc(c34)C[C@H]2N(C)C1 [LSD],oscillatory power in areas of the brain's default mode network,[2],decreases in oscillatory power in areas of the brain's default mode network
same,5-HT2 receptor density in rat brain,5-HT2 receptor,selectively decreased 5-HT2 receptor density in the rat brain; also recorded: reduce 5-HT2 receptor density in rat brain
same,anti-depressant and anxiolytic effects,[3],significant and sustained anti-depressant and anxiolytic effects
"CC[C@H](C)C(=O)O[C@H]1C[C@@H](C)C=C2C=C[C@H](C)[C@H](CC[C@@H]3C[C@@H](O)CC(=O)O3)[C@H]21 [Lovastatin, reference compound]","Remaining Percentage (%), 0 min","Plasma stability, rat; 0 min",100.00%
same,remaining at 0.5 h,"Plasma stability, rat; [4]",0.61%
same,remaining at 1 h,"Plasma stability, rat; [5]",0.33%
"CC(C)[N+](C)(CCOC(=O)C1c2ccccc2Oc2ccccc21)C(C)C [Propantheline, reference compound]","Remaining Percentage (%), 0 min","Plasma stability, mouse; 0 min",100.00%
same,remaining at 0.5 h,"Plasma stability, mouse; [4]",61.6%
same,half-life,"Plasma stability, mouse; [6]",37.1 min
same,"Remaining Percentage (%), 0 min","Plasma stability, human; 0 min",100.00%
same,remaining at 0.5 h,"Plasma stability, human; [4]",29%
same,remaining at 1 h,"Plasma stability, human; [5]",2.58%
same,half-life,"Plasma stability, human; [6]",11.4 min
"CN(C)CCc1c[nH]c2cccc(O)c12 [Psilocin, 4-hydroxy-N,N-dimethyltryptamine, reference compound]",RFU@10 μM,human 5-HT1A receptor,140 RFU
